Test results from patent EP4755878A1, “PHOTOCHROMIC COMPOUND, PHENOL DERIVATIVE, CURABLE COMPOSITION, OPTICAL ARTICLE, LENS, AND EYEGLASS” (TOKUYAMA CORPORATION, priority 2023, dated 2025).

Legend:
[1] = Photochromic properties of photochromic laminate (plastic lens) made by coating method; assay type: physicochemical; conditions: for Color developing density at 23°C: absorbance difference after 240 seconds irradiation at 23°C; for Color developing density at 35°C: absorbance difference after 240 seconds irradiation at 35°C; for Maximum absorption wavelength: after color development, second absorption wavelength (lower line of pair)
Outline: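 Curable coating with photochromic compound at 0.25 mmol per 100 g radically-polymerizable methacrylate monomer blend, spin-coated to 40 µm on primed, alkali-etched thiourethane lens (2 mm, n 1.60). Cured by metal halide lamp 200 mW/cm^2, 90 s under nitrogen, then 110°C for 1 h.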

[2] = Photochromic properties of photochromic cured product made by kneading method; assay type: physicochemical; conditions: for Maximum absorption wavelength: 1 mm, after color development, second absorption wavelength (lower line of pair); for Color developing density at 23°C: absorbance difference after 240 seconds irradiation at 23°C; for Color developing density at 35°C: absorbance difference after 240 seconds irradiation at 35°C
Text: First, the photochromic compound obtained in Example 1, additives, and polymerizable compounds were mixed to obtain a curable composition. As the polymerizable compounds, a blend of the following polymerizable monomers in combination was used. • 1,3-Bis(isocyanatomethyl)cyclohexane: 36.7 parts by mass Pentaerythritol tetrakis(3-mercaptopropionate): 39.4 parts by mass • Polyoxyethylene polyoxypropylene lauryl ether (WONDERSURF 140 from Aoki Oil Industrial Co., Ltd.): 17.4 parts by mass 1-Decanethiol: 2.8 parts by mass • RX-1 prepared according to the method described in Patent Document 12: 3.8 parts by mass Note that in the curable composition, the photochromic compound was added to be 0.106 mmol taking the total amount of the polymerizable monomers as 100 g.
The following additives were used. Dimethyltin dichloride: 0.05 parts by mass • Irganox 245 from BASF Japan Ltd.: 0.1 parts by mass • 2-Ethylhexyl 4-methoxycinnamate: 0.6 parts by mass
The prepared curable composition was sufficiently degassed, and then injected into a glass mold provided with a gap of 1 mm, and the curable composition was polymerized via casting polymerization. […] After the polymerization, the cured product was removed from the glass mold, to obtain photochromic cured product having a thickness of 1 mm. The resulting photochromic cured product was evaluated in the same manner as in Example 23.
(Examples 51 to 60, and Comparative Examples 11 to 14) Photochromic cured products were formed using the photochromic compound shown in Table 6 in the same manner as in Example 50.

[3] = Photochromic properties of photochromic layer (binder sheet) made by binder method; conditions: for Color developing density at 23°C: absorbance difference after 240 seconds irradiation at 23°C; for Color developing density at 35°C: absorbance difference after 240 seconds irradiation at 35°C; for Maximum absorption wavelength: after color development, second absorption wavelength (lower line of pair)
Description: This is the maximum absorption wavelength after color development determined by a spectrophotometer manufactured by Otsuka Electronics Co., Ltd. (instantaneous multichannel photo detector MCPD3000) and was used as an index of a color tone upon color development.
This is a difference between an absorbance {ε(240)} after irradiation with light at the above-mentioned maximum absorption wavelength at 23°C for 240 seconds and an absorbance ε(0) when not irradiated with light, and was used as an index of a color developing density. The higher this value is, the better photochromic property is.
This is a difference between an absorbance {ε(240)} after irradiation with light at first and second absorption wavelengths at 35°C for 240 seconds and an absorbance ε(0) when not irradiated with light, and was used as an index of a color developing density. The higher this value is, the better photochromic property is.
Color developing density at 35°C (A35) /color developing density at 23°C (A23) × 100(%). The higher this value is, the smaller the difference in color developing density between the higher temperature and the lower temperature is, and the smaller the temperature dependence is.
This is the period of time required for the absorbance at a maximum absorption wavelength of a sample to decrease to 1/2 of {ε(240)-ε(0)}, when light irradiation is stopped after the sample had been irradiated with light at 23°C for 240 seconds, and was used as an index of a color fading rate. The shorter this period of time is, the higher the color fading rate is.
A binder sheet was made according to the following method. […] As the first and second optical sheets, polycarbonate sheets with a thickness of 400 µm were used.
Note that the photochromic compound was added to be 0.25 mmol relative to 100 parts by mass of the terminally non-reactive urethaneurea resin.

Compound | Color developing density at 23°C ([1]; first absorption wavelength) | Color developing density at 23°C ([1]; second absorption wavelength) | Color developing density at 35°C ([1]; first absorption wavelength) | Color developing density at 35°C ([1]; second absorption wavelength) | Maximum absorption wavelength [1] | Maximum absorption wavelength [2] | Color developing density at 23°C ([2]; first absorption wavelength) | Color developing density at 23°C ([2]; second absorption wavelength) | Color developing density at 35°C ([2]; first absorption wavelength) | Color developing density at 35°C ([2]; second absorption wavelength) | Color developing density at 23°C ([3]; first absorption wavelength) | Color developing density at 23°C ([3]; second absorption wavelength) | Color developing density at 35°C ([3]; first absorption wavelength) | Color developing density at 35°C ([3]; second absorption wavelength) | Maximum absorption wavelength [3]
COc1ccc(C2(c3ccc(OC)cc3)C=Cc3c4c(c5ccc(OC)cc5c3O2)-c2ccc(N3CCOc5ccccc53)cc2C4(C)C)cc1 [Formula (13-2)] | 0.87 - | 1.02 - | 0.63 - | 0.75 - | 608 nm | 616 nm | 0.90 - | 1.04 - | 0.66 - | 0.78 - | 0.90 - | 1.04 - | 0.63 - | 0.74 - | 608 nm
COc1ccc(C2(c3ccc(OC)cc3)C=Cc3c4c(c5ccc(OC)cc5c3O2)-c2ccccc2C4(C)C)cc1 [Formula (A), reference compound] | 0.69 - | 0.87 - | 0.44 - | 0.55 - | 569 nm | 578 nm | 0.72 - | 0.91 - | 0.48 - | 0.61 - | 0.71 - | 0.90 - | 0.46 - | 0.58 - | 569 nm
CCCCOc1ccc(C2(c3ccc(OCCCC)cc3)C=Cc3c4c(c5ccc(OC)cc5c3O2)-c2ccc(C)cc2C4(C)C)cc1 [Formula (B), reference compound] | 0.69 - | 0.96 - | 0.48 - | 0.65 - | 579 nm | 586 nm | 0.76 - | 0.98 - | 0.53 - | 0.69 - | 0.75 - | 0.98 - | 0.50 - | 0.67 - | 580 nm
COc1ccc(C2(c3ccc(OC)cc3)C=Cc3c4c(c5ccc(OC)cc5c3O2)-c2ccc(OC)cc2C4(C)C)cc1 [Formula (C), reference compound] | 0.71 - | 1.04 - | 0.48 - | 0.74 - | 593 nm | 600 nm | 0.74 - | 1.07 - | 0.54 - | 0.81 - | 0.73 - | 1.06 - | 0.51 - | 0.75 - | 594 nm

Second part, the molecule after the results:

Color developing density at 23°C ([1]; first absorption wavelength) | Color developing density at 23°C ([1]; second absorption wavelength) | Color developing density at 35°C ([1]; first absorption wavelength) | Color developing density at 35°C ([1]; second absorption wavelength) | Maximum absorption wavelength [1] | Maximum absorption wavelength [2] | Color developing density at 23°C ([2]; first absorption wavelength) | Color developing density at 23°C ([2]; second absorption wavelength) | Color developing density at 35°C ([2]; first absorption wavelength) | Color developing density at 35°C ([2]; second absorption wavelength) | Color developing density at 23°C ([3]; first absorption wavelength) | Color developing density at 23°C ([3]; second absorption wavelength) | Color developing density at 35°C ([3]; first absorption wavelength) | Color developing density at 35°C ([3]; second absorption wavelength) | Maximum absorption wavelength [3] | Compound
0.92 - | 1.07 - | 0.67 - | 0.79 - | 619 nm | 622 nm | 0.95 - | 1.10 - | 0.70 - | 0.83 - | 0.93 - | 1.08 - | 0.67 - | 078 - | 616 nm | COc1ccc(C2(c3ccc(OC)cc3)C=Cc3c4c(c5ccc(OC)cc5c3O2)-c2ccc(N(c3ccccc3)c3ccccc3)cc2C4(C)C)cc1 [Formula (15-2)]
0.53 - | 0.89 - | 0.36 - | 0.61 - | 593 nm | 599 nm | 0.56 - | 0.92 - | 0.38 - | 0.65 - | 0.55 - | 0.90 - | 0.37 - | 0.61 - | 595 nm | COCC1(COC)c2cc(N(C)c3ccccc3)ccc2-c2c1c1c(c3ccccc23)OC(c2ccc(OC)cc2)(c2ccc(OC)c(F)c2)C=C1 (stereo not drawn) [Formula (16-3)]
0.78 - | 1.14 - | 0.57 - | 0.86 - | 617 nm | 625 nm | 0.80 - | 1.18 - | 0.62 - | 0.94 - | 0.80 - | 1.17 - | 0.58 - | 0.88 - | 617 nm | COc1ccc(C2(c3ccc(OC)cc3)C=Cc3c4c(c5ccc(OC)cc5c3O2)-c2ccc(N3CCCCC3)cc2C4(C)C)cc1 [Formula (D), reference compound]
